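Briefly, cells in 96-well plates were exposed to five compound concentrations for 48 h, and endpoints were estimated by linear interpolation. The concentration for 50% growth inhibition is given as GI50.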 The source made the active and inactive calls. No stated cut-off is given here; in the data, active = GI50 up to about 1.1 µM and inactive = higher.
Legend:
Test in all cases: inhibition of tumour cell growth, NCI panel, 48 h
UACC-62 = system: UACC-62
IGROV-1 = system: IGROV-1
NCI-H23 = system: NCI-H23
OVCAR-3 = system: OVCAR-3
NCI/ADR-RES = system: NCI/ADR-RES
A549 = system: A549
Hs-578T = system: Hs-578T
UO-31 = system: UO-31
HT-29 = system: HT-29
K562 = system: K562
NCI-H460 = system: NCI-H460
TK-10 = system: TK-10
DU-145 = system: DU-145
MCF7 = system: MCF7
OVCAR-5 = system: OVCAR-5
Malme-3M = system: Malme-3M
HCC 2998 = system: HCC 2998
SNB-75 = system: SNB-75
CCRF-CEM = system: CCRF-CEM

Measured: GI50

NC1=Nc2cc(C(F)(F)F)ccc2Sc2nc3ccccc3n21
inactive: UACC-62 57.4 µM | IGROV-1 > 25.7 µM | NCI-H23 31.3 µM | OVCAR-3 33.1 µM | NCI/ADR-RES > 100 µM | A549 > 56 µM | Hs-578T 42.1 µM | UO-31 > 20.5 µM | HT-29 12.6 µM | K562 5.75 µM | NCI-H460 10.1 µM | TK-10 > 67 µM | DU-145 > 94.6 µM | MCF7 > 76.9 µM | OVCAR-5 > 52.8 µM | Malme-3M > 86.1 µM | HCC 2998 > 94.8 µM | SNB-75 19.9 µM | CCRF-CEM 2.64 µM

c1ccc2c(C3CCN(CCN4CCOCC4)C3)c[nH]c2c1 (configuration not stated)
inactive: UACC-62 > 100 µM | IGROV-1 > 100 µM | NCI-H23 > 100 µM | OVCAR-3 > 100 µM | NCI/ADR-RES > 100 µM | A549 > 100 µM | Hs-578T > 100 µM | UO-31 > 100 µM | HT-29 > 100 µM | K562 > 100 µM | NCI-H460 > 100 µM | TK-10 > 100 µM | DU-145 > 100 µM | MCF7 > 100 µM | OVCAR-5 > 100 µM | Malme-3M > 100 µM | HCC 2998 47 µM | SNB-75 > 100 µM | CCRF-CEM > 100 µM

CC1CC[C@@]2(OC1)OC1C[C@H]3[C@@H]4CC[C@H]5CC(OC6OC(CO)C(OC7OC(CO)C(O)C(O)C7O)C(O)C6O)CCC5(C)[C@H]4CCC3(C)C1[C@@H]2C (some centres not stated)
inactive: UACC-62 10.1 µM | IGROV-1 2.52 µM | NCI-H23 8.81 µM | OVCAR-3 6.1 µM | NCI/ADR-RES 9.64 µM | A549 9.35 µM | Hs-578T 8.57 µM | UO-31 11.1 µM | HT-29 7.35 µM | K562 12.5 µM | NCI-H460 9.04 µM | TK-10 9.64 µM | DU-145 8.3 µM | MCF7 5.85 µM | OVCAR-5 8.65 µM | Malme-3M 8.13 µM | HCC 2998 5.85 µM | SNB-75 9.93 µM | CCRF-CEM 9.16 µM

CSc1c(C(=O)Nc2ccccc2)c(N)nn1-c1ccccc1
inactive: UACC-62 > 100 µM | NCI-H23 > 100 µM | OVCAR-3 > 100 µM | NCI/ADR-RES > 100 µM | A549 > 100 µM | Hs-578T > 100 µM | UO-31 67.9 µM | HT-29 > 100 µM | K562 > 100 µM | NCI-H460 > 100 µM | TK-10 > 100 µM | DU-145 > 100 µM | MCF7 > 100 µM | OVCAR-5 > 100 µM | Malme-3M > 100 µM | HCC 2998 > 100 µM | SNB-75 > 100 µM | CCRF-CEM > 100 µM

O=C1c2ccccc2C2CNC1(O)c1ccccc12 (configuration not stated)
inactive: UACC-62 > 100 µM | IGROV-1 > 100 µM | NCI-H23 > 100 µM | OVCAR-3 > 100 µM | NCI/ADR-RES > 100 µM | A549 > 100 µM | Hs-578T > 100 µM | UO-31 > 100 µM | HT-29 > 100 µM | K562 > 100 µM | NCI-H460 > 100 µM | TK-10 > 100 µM | DU-145 > 100 µM | MCF7 > 100 µM | OVCAR-5 > 100 µM | Malme-3M > 100 µM | HCC 2998 > 100 µM | SNB-75 > 100 µM | CCRF-CEM > 100 µM

Cn1cc(S(=O)(=O)NC(=O)Nc2ccc(Cl)cc2)c2ccccc21
inactive: UACC-62 12.4 µM | IGROV-1 13.3 µM | NCI-H23 > 100 µM | OVCAR-3 > 100 µM | NCI/ADR-RES 38.6 µM | A549 63.4 µM | Hs-578T > 100 µM | UO-31 44.8 µM | HT-29 > 100 µM | K562 > 100 µM | NCI-H460 57.4 µM | TK-10 21.4 µM | DU-145 49.2 µM | MCF7 56 µM | OVCAR-5 46.1 µM | Malme-3M > 100 µM | HCC 2998 51.4 µM | SNB-75 > 100 µM | CCRF-CEM > 100 µM

CCOc1cc2c(=O)oc3c(OC)ccc4ccc(c1OC)c2c43
inactive: UACC-62 > 100 µM | IGROV-1 > 100 µM | NCI-H23 73.5 µM | OVCAR-3 > 100 µM | NCI/ADR-RES 36.2 µM | A549 28.5 µM | Hs-578T 44.8 µM | UO-31 > 100 µM | HT-29 97.5 µM | K562 > 100 µM | NCI-H460 25.1 µM | TK-10 > 100 µM | DU-145 > 100 µM | MCF7 > 100 µM | OVCAR-5 > 100 µM | Malme-3M > 100 µM | HCC 2998 77.3 µM | SNB-75 64.3 µM | CCRF-CEM > 100 µM
